We go through two compounds from ChEMBL document CHEMBL1121444, “Biological significance and therapeutic potential of prostacyclin” (J Med Chem, 1980).

The data set can be described thus: Compound was evaluated for half life at 37 degree Centigrade.

As to `CCCCC[C@H](O)/C=C/C1OC2CC(O2)[C@@H]1C/C=C\CCCC(=O)O` (some centres not stated), the half-life was 0.5 min.

In the case of `CCCCC[C@H](O)/C=C/[C@@H]1[C@H]2C/C(=C/CCCC(=O)O)O[C@H]2C[C@H]1O` [EPOPROSTENOL], the half-life amounted to 3 min.

The half-life is how long it takes for the measured level to halve. The low end stands for fast loss, the high end for slow loss.
